{
  "source": "patent US20210186888A1",
  "about": "“NANOPARTICLE COMPOSITIONS FOR CANCER TREATMENT” (priority 2017, published 2021)",
  "type_in_all_cases": "cell-based",
  "key": {"MDA-MB-231": {"test_system": "MDA-MB-231", "test": "MTT assay", "description": "(§1) MTT assay: Cells were grown to log phase in their respective media, washed in PBS, trypsinized, and plated on 96-well plates at a density of 3,000-6,000 cells per well in 200 μL of complete media. Cells were allowed to recover for 18 hours and were then exposed to AgNPs for 48 or 72 hours. For NAC studies, cells were exposed to 4 mM NAC (Sigma Aldrich) diluted in growth media for 6 h prior to AgNP treatment. Media containing NAC was removed and replaced with media containing AgNPs. For induction of EMT, cells were exposed to 10 ng/ml TGF-β1 (R&D Systems) for 6 days at 37° C., prior to AgNP treatment. Media containing AgNPs were replaced with 200 μL of media containing 0.5 mg/mL MTT and incubated for 1 hour at 37° C. Medium was removed, and cells were lysed in 200 μL of DMSO and read using a Molecular Devices Emax Precision Microplate Reader at 560 nm and corrected for background at 650 nm.\nAs with the 48 h treatment, the CLBC cell lines were the most sensitive to AgNPs following a 72 h treatment.\n(§2) IC50 calculations were performed using the prism software. IC50 in Table II are shown in total NP (AgNP) concentration and silver (Ag) content. At least 3 independent experiments were conducted for each cell line."}, "[1]": {"test_system": "PERK arm of the UPR in MDA-MB-231 cells", "test": "Immunoblotting of PERK arm activation (p-eIF2α)", "details": "4 h", "description": "MDA-MB-231 cells were treated with 1 μM of the ER stress inducer, thapsigargin, 25 nM of the PERK inhibitor (PERKi), […], or the combination of thapsigargin and GSK2606414 for 4 h to verify the efficacy of the PERKi, GSK2606414. […] To further evaluate the role of ER stress in AgNP-induced cytotoxicity, MDA-MB-231 cells were treated with increasing doses of AgNPs alone or in combination with the PERKi, GSK2606414, for 48 h to determine if PERK inhibition provides protection against AgNP-induced cytotoxicity."}, "BT-20": {"test_system": "BT-20", "test": "MTT assay", "description": "as §1\nTNBC cell lines which can be further classified as the CLBC (MDA-MB-231, BT-549, SUM-159) or basal (BT-20, MDA-MB-468) molecular subtypes were tested, as were luminal A (MCF-7), HER-2+ (SKBR3), and non-cancerous breast (MCF-10A, 184B5, iMEC) cell lines (FIG. 2A). […]\nBT20 basal-like breast cancer cells were treated with either AgNPs or KRIBB11, an HSF1 inhibitor, independently and in combination. Treated cells were then assessed for cell viability by MTT assay (FIG. 18A)."}, "BT-549": {"test_system": "BT-549", "test": "MTT assay", "description": "as §1\nZEB1 Knockdown: BT549 cells were plated in 60mm tissue culture plates and allowed to grow to 80-90% confluence. Each plate was then transfected with a non-coding control shRNA plasmid, or a plasmid containing shRNA targeted against ZEB1. Knockdown constructs used in this study were obtained from Sigma Aldrich (Mission shRNA TRCN0000369267 and TRCN0000369266). Each plate was transfected using 1 μg plasmid in conjunction with Lipofectamine 2000 (Invitrogen) according to the manufacturer's protocol. The following day cells were reseeded and were maintained in medium containing puromycin (2 μg/ml). ZEB1 expression levels were verified using immunoblot prior to experimentation.\nTNBC cell lines which can be further classified as the CLBC (MDA-MB-231, BT-549, SUM-159) or basal (BT-20, MDA-MB-468) molecular subtypes were tested, as were luminal A (MCF-7), HER-2+ (SKBR3), and non-cancerous breast (MCF-10A, 184B5, iMEC) cell lines (FIG. 2A). […] As with the 48 h treatment, the CLBC cell lines were the most sensitive to AgNPs following a 72 h treatment.\nas §2\nBT549 claudin-low breast cancer cells were treated with either AgNPs or KRIBB11, an HSF1 inhibitor, independently and in combination. The treated cells were then assessed for cell viability by MTT assay (FIG. 17A).\nBT549 claudin-low breast cancer cells were treated with either AgNPs or 17-DMAG, an HSP90 inhibitor, independently and in combination. Treated cells were then assessed for cell viability by MTT assay (FIG. 19A). […] Combination treatment of both AgNPs and […]"}, "[2]": {"test_system": "AgNP sensitive cell lines", "test": "ROS detection with H2DCF-DA", "details": "24 h 10 mM NAC"}},
  "data": [
    {"smiles": "Cn1cc(-c2ccc3c(c2)CCN3C(=O)Cc2cccc(C(F)(F)F)c2)c2c(N)ncnc21", "note": "[GSK2606414]", "values": [
      {"measurement": "viability, AgNPs alone vs in combination with the PERKi", "setting": "MDA-MB-231; MDA-MB-231, 48 h", "value": "no significant difference in viability"},
      {"measurement": "p-eIF2α expression, co-treatment with thapsigargin vs thapsigargin alone", "setting": "[1]; MDA-MB-231, 25 nM PERKi + 1 μM thapsigargin", "value": "decreased p-eIF2α expression"}
    ]},
    {"smiles": "CNc1ccc([N+](=O)[O-])c(Nc2ccc3[nH]ncc3c2)n1", "note": "[KRIBB11]", "values": [
      {"measurement": "combination treatment with AgNPs (combination index)", "setting": "BT-20; BT20, AgNPs + HSF1 inhibitor", "value": "synergistic response"},
      {"measurement": "sensitivity to AgNPs versus HSF1 inhibition (dose reduction index)", "setting": "BT-20; BT20, single agents", "value": "marginally more sensitive to AgNPs"},
      {"measurement": "combination treatment with AgNPs (combination index)", "setting": "BT-549; BT549, AgNPs + HSF1 inhibitor", "value": "synergistic response"},
      {"measurement": "combination treatment with AgNPs (combination index)", "setting": "BT-549; BT549, AgNPs + HSP90 inhibitor", "value": "additive response"},
      {"measurement": "sensitivity to AgNPs versus HSF1 inhibition (dose reduction index)", "setting": "BT-549; BT549, single agents", "value": "equally sensitive"}
    ]},
    {"smiles": "C/C=C(/C)C(=O)O[C@H]1C(C)=C2[C@H]([C@@H]1OC(=O)CCCCCCC)[C@@](C)(OC(C)=O)C[C@H](OC(=O)CCC)[C@@]1(O)[C@H]2OC(=O)[C@@]1(C)O", "note": "[thapsigargin, Thapsigargin]", "values": [
      {"measurement": "phosphorylation of eIF2α (p-eIF2α)", "setting": "[1]; MDA-MB-231, 1 μM", "value": "increase in phosphorylation of the downstream effector, eIF2α"}
    ]},
    {"smiles": "CO[C@H]1/C=C\\C=C(/C)C(=O)NC2=CC(=O)C(NCCN(C)C)=C(C[C@@H](C)C[C@H](OC)[C@H](O)[C@@H](C)/C=C(\\C)[C@@H]1OC(N)=O)C2=O", "note": "[17-DMAG]", "values": [
      {"measurement": "sensitivity to AgNPs versus HSP90 inhibition (dose reduction index)", "setting": "BT-549; BT549, single agents", "value": "equally sensitive"}
    ]},
    {"smiles": "CC(=O)N[C@@H](CS)C(=O)O", "note": "[NAC, N-acetylcysteine]", "values": [
      {"measurement": "effect of NAC pre-treatment on AgNP cytotoxicity", "setting": "MDA-MB-231; MDA-MB-231, 4 mM NAC 6 h before 48 h AgNP, Ag 15.625-62.5 μg/ml", "value": "significantly decreased cytotoxicity"},
      {"measurement": "basal ROS after NAC treatment", "setting": "[2]", "value": "partially mitigate some of the basal ROS"},
      {"measurement": "effect of NAC pre-treatment on AgNP cytotoxicity", "setting": "BT-549; BT-549, 4 mM NAC 6 h before 48 h AgNP, Ag 62.5-125 μg/ml", "value": "significantly decreased cytotoxicity"}
    ]}
  ]
}
